From ChEMBL document CHEMBL3399985, “Rational design, synthesis and structure-activity relationships of 4-alkoxy- and 4-acyloxy-phenylethylenethiosemicarbazone analogues as novel tyrosinase inhibitors” (Bioorg Med Chem, 2015)
Active and inactive are the calls of the source. The rule behind the calls is not given here.

What was measured:
Tyrosinase = target: T1, Tyrosinase (Agaricus bisporus, UniProt O42713)
T1 sequence (O42713 whole entry): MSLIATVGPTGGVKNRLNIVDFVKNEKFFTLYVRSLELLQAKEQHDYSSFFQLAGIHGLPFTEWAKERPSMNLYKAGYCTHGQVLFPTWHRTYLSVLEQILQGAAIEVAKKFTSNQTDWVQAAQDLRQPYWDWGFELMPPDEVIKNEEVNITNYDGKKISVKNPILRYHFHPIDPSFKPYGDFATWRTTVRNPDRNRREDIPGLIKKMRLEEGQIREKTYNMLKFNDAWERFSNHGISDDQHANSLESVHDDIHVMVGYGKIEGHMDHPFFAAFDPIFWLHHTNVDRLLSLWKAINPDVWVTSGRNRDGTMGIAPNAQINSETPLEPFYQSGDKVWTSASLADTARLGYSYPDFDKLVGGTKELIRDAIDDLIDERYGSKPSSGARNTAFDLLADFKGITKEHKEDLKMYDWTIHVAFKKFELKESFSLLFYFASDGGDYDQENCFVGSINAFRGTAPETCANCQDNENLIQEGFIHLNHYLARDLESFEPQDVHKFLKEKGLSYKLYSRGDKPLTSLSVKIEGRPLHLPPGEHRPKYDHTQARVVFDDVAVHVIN
Description: Inhibition of mushroom tyrosinase using L-DOPA as substrate preincubated for 10 mins by spectrophotometry

[1] = target: T2, Tyrosinase (Agaricus bisporus) (UniProt O42713); experiment: Competitive inhibition of mushroom tyrosinase using L-DOPA as substrate preincubated at 0.2 to 0.6 uM for 10 mins by Lineweaver-Burk double reciprocal plot method
T2 sequence (whole entry): T1 sequence (O42713 whole entry)

[2] = target: T2, Tyrosinase (Agaricus bisporus); experiment: Reversible inhibition of mushroom tyrosinase using L-DOPA as substrate preincubated at 0.2 to 0.6 uM for 10 mins by spectrophotometry
[3] = target: T2, Tyrosinase (Agaricus bisporus); experiment: Reversible inhibition of mushroom tyrosinase using L-DOPA as substrate preincubated at 0.1 to 0.3 uM for 10 mins by spectrophotometry
[4] = target: T2, Tyrosinase (Agaricus bisporus); experiment: Competitive inhibition of mushroom tyrosinase using L-DOPA as substrate preincubated at 0.1 to 0.3 uM for 10 mins by Lineweaver-Burk double reciprocal plot method

Compound | IC50 (Tyrosinase) [nM] | further results
CCCCOc1ccc(CC/C(C)=N/NC(N)=S)cc1 | 272 | –
CCCCCCCCOc1ccc(CC/C(C)=N/NC(N)=S)cc1 | 865 | –
C/C(CCc1ccc(OCc2ccc(Br)cc2)cc1)=N\NC(N)=S | 438 | –
CC(=O)Oc1ccc(CC/C(C)=N/NC(N)=S)cc1 | 72 | –
C/C(CCc1ccc(OCCC(C)C)cc1)=N\NC(N)=S | 475 | –
CCCCCOc1ccc(C/C(C)=N/NC(N)=S)cc1 | 613 | –
COc1ccc(C/C(C)=N/NC(=S)NN)cc1 | 159000 | –
NNC(=S)NN | 178000 | –
CCCCOc1ccc(CC/C(C)=N/NC(=S)NN)cc1 | 232000 | –
CCCCCOc1ccc(CC/C(C)=N/NC(N)=S)cc1 | 412 | –
CCOC(=O)CCCOc1ccc(C/C(C)=N/NC(N)=S)cc1 | 478 | –
COc1ccc(CC/C(C)=N/NC(N)=S)cc1 | 188 | –
C/C(CCc1ccc(OCc2ccccc2)cc1)=N\NC(N)=S | 217 | inhibition [3]: Active; inhibition [4]: Active
C/C(CCc1ccc(OCCCC(=O)O)cc1)=N\NC(N)=S | 678 | –
CCCCOc1ccc(C/C(C)=N/NC(=S)NN)cc1 | 224000 | –
CCCCCCOc1ccc(CC/C(C)=N/NC(N)=S)cc1 | 754 | –
C/C(CCc1ccc(OCCCc2ccccc2)cc1)=N\NC(N)=S | 835 | –
C/C(CCc1ccc(OC(=O)c2ccccc2)cc1)=N\NC(N)=S | 156 | –
CCOc1ccc(CC/C(C)=N/NC(N)=S)cc1 | 209 | –
CCC(CC)Oc1ccc(CC/C(C)=N/NC(N)=S)cc1 | 445 | –

The remaining molecules from weak to strong by IC50 (Tyrosinase), led by results:

IC50 (Tyrosinase) [nM] | Compound | further results
208000 | COc1ccc(CC/C(C)=N/NC(=S)NN)cc1 | –
126000 | C/C(CCc1ccc(O)cc1)=N\NC(=S)NN | –
110000 | COc1ccc(/C(C)=N/NC(=S)NN)cc1 | –
2710 | C/C(Cc1ccc(O)cc1)=N\NC(N)=S | –
593 | C/C(CCc1ccc(OCC(=O)O)cc1)=N\NC(N)=S | –
515 | CCOC(=O)COc1ccc(CC/C(C)=N/NC(N)=S)cc1 | –
340 | C/C(Cc1ccc(OCc2ccccc2)cc1)=N\NC(N)=S | inhibition [1]: Active; inhibition [2]: Active
328 | CCOC(=O)CCCOc1ccc(CC/C(C)=N/NC(N)=S)cc1 | –
288 | C/C(CCc1ccc(OC(=O)C(C)C)cc1)=N\NC(N)=S | –
264 | CCCOc1ccc(CC/C(C)=N/NC(N)=S)cc1 | –
